Test results: patent US20170290806A1, “PCSK9 Inhibitors and Methods of Use Thereof” (Temple University-Of The Commonwealth System of Higher …, priority 2014, published 2017)
Entries after “also recorded” stand apart in the source; their conditions may differ.

Legend:
[1] = molecular target: T1, PCSK9/LDLR interaction (Homo sapiens, UniProt Q8NBP7); assay: LDLR upregulation in HepG2 cells; type: cell-based; parameters: the human full-length PCSK9 was cloned; expressed in transfected cells; conditions: for up-regulation of endogenously expressed LDLR: compounds 1-50 uM; for EC50: endogenously expressed LDLR, transfected with PCSK9, compounds 1-50 uM, 43 hours, read-out: EC50 of up-regulation of LDLR
Description: (§1) HepG2 cells were seeded into 96 well plates in a MEM containing 10% Fetal Bovine Serum media and incubated overnight at 37° C. Cells were transiently transfected with PCSK9 cDNA constructs using the Lipofectamine-LTX. Compounds (1-50 uM) were added, followed by additional 43 hours of incubation. The cells were lysed and analyzed for LDLR expression and cell viability determined as described in FIG. 8.
(§2) Considering the difficulty in assaying the LDLR/PCSK9 binding, the approach was to develop and implement an innovative recombinant cell based assay where the full-length PCSK9 and the LDLR genes are expressed into HEK-293 cells, and allowed to decrease the LDLR level by PCSK9 (FIG. 7). Compounds that prevent the LDLR degradation without preventing the auto-processing and secretion of the PCSK9 were selected as potential candidates and were further evaluated using additional cell based assay using endogenously expressed LDLR in liver cells (HepG2 cells).
The compounds SBC-110,424, SBC-110, 433, and SBC-115,076 were also validated for their ability to up-regulate the endogenously expressed LDLR in HepG2 cells.

[2] = molecular target: T1, PCSK9/LDLR interaction; assay: Recombinant cell based assay: LDLR upregulation in HEK293 cells transfected with LDLR and PCSK9; parameters: the human full-length PCSK9 was cloned; expressed in transfected cells; host or cells: HEK-293T; conditions: for increase in the LDLR (intracellular recombinant LDLR upregulation) as comparable to control / EC50: HEK293 cells transfected with LDLR and PCSK9; for increase in the LDLR (intracellular recombinant LDLR upregulation) as comparable to control: compounds 1-50 μM; for EC50: compounds 1-50 uM, 43 hours incubation, read-out: EC50 of LDLR up-regulation; for IC50s (increase in the LDLR): PCSK9/LDLR HEK293 recombinant cell based assay
Description: as §1, with “HEK-293T” for “HepG2”, “DMEM” for “MEM”, “with LDLR and” for “with”, “7.” for “8.”
as §1, with “HEK-293T” for “HepG2”, “DMEM” for “MEM”, “with LDLR and” for “with”, “8. […] Compound SBC-130,022 has no effect in up-regulating LDLR.” for “8.”
as §2
Preparation of constructs: the human full-length PCSK9 was cloned. The cDNA encoding the PCSK9 sequence with and without a FLAG epitope tag (DYKDDDDK) were cloned by PCR and subcloned into mammalian expression vector containing the cytomegalovirus promoter-enhancer (pCMV-PCSK9-FLAG) (pCDNA3.1/PCSK9). For LDLR, the coding sequence was constructed without tag in mammalian expression vector (pCMV-LDLR) (pCDNA3.1/LDLR). The constructs were confirmed by sequence analysis
The pCDNA3.1/PCSK9, and the pCDNA3.1/LDLR constructs were used to transiently transfect mammalian cells. The human embryonic kidney (HEK)-293 cells were seeded (1×10^5 cells/well) in 24-well plates. Expression plasmids ([…]) were transiently transfected into HEK-293 cells with lipofectamine (Invitrogen) according to the manufacturer's protocol. Twenty four to forty eight hours after transfection, cells were harvested. The cells were then be lysed. Both cell lysate and supernatant were subjected to SDS-PAGE and immunoblot analysis using an anti-PCSK9 or LDLR antibody.
240 compounds identified from the virtual screen in a cell based assay for their potential to upregulate the LDLR in the presence of PCSK9 were tested as described above. Initial screening was done using 50 μM of the compounds. Each compound was added to the cell media in triplicates, and intrecellar LDLR was detected as described above. Each set of compounds were screened at least twice with all appropriate controls. Compounds that upregulate the LDLR were selected for further evaluation.
From the initial screening, 24 compounds were identified as potential hits. Hits confirmation was repeated in triplicates using 50 μM.

T1 sequence (Q8NBP7 153-692): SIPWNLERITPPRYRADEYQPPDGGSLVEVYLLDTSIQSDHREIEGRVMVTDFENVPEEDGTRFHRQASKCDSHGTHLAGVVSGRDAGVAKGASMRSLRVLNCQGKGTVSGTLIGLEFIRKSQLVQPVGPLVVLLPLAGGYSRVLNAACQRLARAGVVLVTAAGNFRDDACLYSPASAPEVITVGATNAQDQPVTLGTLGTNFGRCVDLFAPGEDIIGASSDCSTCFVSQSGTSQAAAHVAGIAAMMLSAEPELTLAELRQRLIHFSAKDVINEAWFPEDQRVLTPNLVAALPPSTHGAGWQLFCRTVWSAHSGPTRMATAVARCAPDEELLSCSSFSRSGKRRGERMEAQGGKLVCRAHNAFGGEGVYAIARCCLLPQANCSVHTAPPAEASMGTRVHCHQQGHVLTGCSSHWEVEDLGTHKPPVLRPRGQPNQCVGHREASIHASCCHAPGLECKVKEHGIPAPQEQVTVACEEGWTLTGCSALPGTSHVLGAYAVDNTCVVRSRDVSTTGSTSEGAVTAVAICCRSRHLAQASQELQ
T1 sequence (Q8NBP7 31-152 partner limits assumed): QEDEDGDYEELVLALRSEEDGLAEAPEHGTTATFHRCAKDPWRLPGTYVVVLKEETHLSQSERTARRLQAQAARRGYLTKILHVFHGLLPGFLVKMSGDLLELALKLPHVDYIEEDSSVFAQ

Row | up-regulation of endogenously expressed LDLR [1] | EC50 [1] [nM] | EC50 [2] [µM] | IC50s (increase in the LDLR) [2] | Compound | increase in the LDLR (intracellular recombinant LDLR upregulation) as comparable to control [2]
1 | concentration dependent up-regulation | 2000 | 3.5 | low uM range | CC(C)(C(=O)NCc1ccco1)n1cc(NC(=O)c2cccnc2)cn1 [SBC-110,424] | concentration dependent increase; also recorded: significant potency
2 | concentration dependent up-regulation | 430 | 3.1 | low uM range | Cc1cc(C(=O)C2=C(O)C(=O)N(CCCN3CCOCC3)C2c2ccncc2)ccc1OCc1ccccc1 (stereo not shown) [SBC-115,076] | concentration dependent increase
